From ChEMBL document CHEMBL1759884, “Synthesis and evaluation of bibenzyl glycosides as potent tyrosinase inhibitors” (Eur J Med Chem, 2011)

The compounds below were run against Tyrosinase (Agaricus bisporus) (assay: Inhibition of Tyrosinase).

| IC50 [nM] | SMILES |
| --- | --- |
| 770 | OC[C@H]1O[C@@H](Oc2ccc(CCc3ccc(O)cc3O)c(O)c2)[C@H](O)[C@@H](O)[C@@H]1O |
| 680 | OC[C@H]1O[C@@H](O[C@H]2[C@H](O)[C@@H](O)[C@H](Oc3ccc(CCc4ccc(O)cc4O)c(O)c3)O[C@@H]2CO)[C@H](O)[C@@H](O)[C@@H]1O |
| 830 | OC[C@H]1O[C@H](O[C@H]2[C@H](O)[C@@H](O)[C@H](Oc3ccc(CCc4ccc(O)cc4O)c(O)c3)O[C@@H]2CO)[C@H](O)[C@@H](O)[C@@H]1O |
| 1600 | Oc1ccc(CCc2ccc(O)cc2O[C@@H]2OC[C@@H](O)[C@H](O)[C@H]2O)c(O)c1 |
| 430 | Oc1ccc(CCc2ccc(O[C@@H]3OC[C@@H](O)[C@H](O)[C@H]3O)cc2O)c(O)c1 |
